For one assay, the system named is KCL22 B10 (Y253H, 50%). The assay can be described thus: Cytotoxicity assay (resazurin) on KCL22 subclone B10. Type of assay: cell-based. As to conditions: Homo sapiens, KCL-22, read-out: GI50 KCL22 B10 Y253H (50%), 72 h. The procedure:
(§1) Human cell lines KCL22 and BV173 were obtained from the German Collection of Microorganisms and Cell Cultures, K562 and HEK-293T from the European Collection of Authenticated Cell Cultures. KBM5 cell line was kindly gifted by Vladimír Divoký. Development of KCL22 subclones B8 (T315I, 100%), F4 (E255K, 100%), and B10 (Y253H, 50%) was reported previously. All cell lines were cultivated in humidified incubator at 37 °C and in 5% CO2 according to the provider’s instructions in appropriate media supplemented with 10% fetal bovine serum, penicillin (100 IU/mL), streptomycin (100 µg/mL), and glutamine (4 mM).
(§2) Cytotoxicity was determined using resazurin, an indicator dye to measure oxidation-reduction reactions occurring in the mitochondria of live cells. The cells were seeded into 96-well plates and treated with compounds for 72 h (six different doses of each, in triplicate). After treatment, resazurin (Merck, Darmstadt, Germany) solution was added for 4 h, and the fluorescence of formed resorufin corresponding to live cell quantity was measured at 544 nm/590 nm (excitation/emission) using a Fluoroskan Ascent microplate reader (Labsystems, Vantaa, Finland).
(Resazurin is reduced to fluorescent resorufin, in cell work by metabolically active cells.)

In a further assay the test system is KCL22 F4 (E255K, 100%). The assay can be described thus: Cytotoxicity assay (resazurin) on KCL22 subclone F4. The settings on record: Homo sapiens, KCL-22, read-out: GI50 KCL22 F4 E255K (100%), 72 h. Type of assay: cell-based. As to the method:
as §1, §2

The next assay concerns BV173. The assay can be described thus: Cytotoxicity assay (resazurin) on BV173. Type of assay: cell-based. The settings on record: Homo sapiens, BV-173, 72 h. As to the method:
as §1, §2

For a further assay, the system named is HEK-293T. The assay can be described thus: Cytotoxicity assay (resazurin) on non-neoplastic HEK-293T. Type of assay: cell-based. As to conditions: Homo sapiens, 72 h, non-neoplastic cells. As to the method: as §1, §2
In the next assay the test system is KCL22 B8 (T315I, 100%). The assay can be described thus: Cytotoxicity assay (resazurin) on KCL22 subclone B8. It is filed as cell-based. As to conditions: Homo sapiens, KCL-22, read-out: GI50 KCL22 B8 T315I (100%), 72 h. The procedure: as §1, §2
A further assay concerns the target T1, recombinant Abl1 kinase (Homo sapiens, UniProt P00519).
T1 construct: made in house
The assay can be described thus: Recombinant Abl1 kinase inhibition assay ([γ-33P]ATP, peptide substrate). It is filed as biochemical. As to the method: The reactions were stopped by adding 5 µL of 3% aq. H3PO4. […] H3PO4, and air-dried.

The next assay concerns KBM5. The assay can be described thus: Cytotoxicity assay (resazurin) on KBM5. Type of assay: cell-based. As to conditions: Homo sapiens, read-out: GI50 KBM5.
In a further assay the test system is K562. The assay can be described thus: Cytotoxicity assay (resazurin) on K562. Type of assay: cell-based. The settings on record: Homo sapiens, 72 h. As to the method: as §1, §2
Assay [1] deals with KCL22 cells containing Bcr-Abl^WT. The assay can be described thus: Cytotoxicity assay (resazurin) on KCL22 WT. It is filed as cell-based, human. As to conditions: Homo sapiens, KCL-22, 72 h, read-out: GI50 KCL22 WT.
Setting [2] is: from the IC50 of Table S1, read-out: pIC50 (Table S1) (converted).
Where [3] appears, read: recombinant Abl1, 1 µM ATP, at least three independent experiments, read-out: IC50 Abl.

Molecules are shown by their SMILES. Like-named read-outs stand apart in the source and are kept apart here.

T1 sequence (P00519 whole entry): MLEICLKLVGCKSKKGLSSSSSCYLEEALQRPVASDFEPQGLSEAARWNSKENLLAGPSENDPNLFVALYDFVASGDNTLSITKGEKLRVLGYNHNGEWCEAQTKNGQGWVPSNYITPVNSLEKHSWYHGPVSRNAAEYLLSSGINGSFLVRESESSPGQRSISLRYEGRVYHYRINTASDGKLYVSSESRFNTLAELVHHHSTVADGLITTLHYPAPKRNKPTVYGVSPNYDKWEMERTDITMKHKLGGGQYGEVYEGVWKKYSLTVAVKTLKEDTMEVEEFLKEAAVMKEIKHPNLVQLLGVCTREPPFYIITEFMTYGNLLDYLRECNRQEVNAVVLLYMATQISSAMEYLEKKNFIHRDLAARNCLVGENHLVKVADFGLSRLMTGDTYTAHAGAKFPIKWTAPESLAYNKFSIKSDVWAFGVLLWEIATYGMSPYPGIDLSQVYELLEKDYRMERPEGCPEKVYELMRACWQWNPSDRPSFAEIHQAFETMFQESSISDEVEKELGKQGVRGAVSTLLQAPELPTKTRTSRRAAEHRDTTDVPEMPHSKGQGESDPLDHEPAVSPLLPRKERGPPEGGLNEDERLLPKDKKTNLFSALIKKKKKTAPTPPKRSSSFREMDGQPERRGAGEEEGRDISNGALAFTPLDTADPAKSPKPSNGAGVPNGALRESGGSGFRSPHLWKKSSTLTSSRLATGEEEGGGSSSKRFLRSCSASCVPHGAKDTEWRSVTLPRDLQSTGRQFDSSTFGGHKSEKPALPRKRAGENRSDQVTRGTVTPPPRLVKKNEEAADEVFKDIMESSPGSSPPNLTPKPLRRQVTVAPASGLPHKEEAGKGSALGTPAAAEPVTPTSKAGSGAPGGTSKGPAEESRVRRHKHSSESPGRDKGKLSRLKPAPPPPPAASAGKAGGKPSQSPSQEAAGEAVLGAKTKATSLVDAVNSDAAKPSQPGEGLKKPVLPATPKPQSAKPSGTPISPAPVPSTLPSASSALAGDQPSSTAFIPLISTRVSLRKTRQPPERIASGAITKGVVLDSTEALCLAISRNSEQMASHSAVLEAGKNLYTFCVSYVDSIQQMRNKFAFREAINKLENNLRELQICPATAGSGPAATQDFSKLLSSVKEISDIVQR

For `CC(C)CCn1cnc2c(Nc3ccc(F)c(F)c3)nc(Nc3ccc(N4CCN(CCO)CC4)cc3)nc21` [Compound 11f, 2-(4-(4-((6-((3,4-Difluorophenyl)amino)-9-isopentyl-9H-purin-2-yl)amino)phenyl)piperazin-1-yl)ethan-1-ol], the GI50 came to 7 ± 0.5 µM with KCL22 B10 (Y253H, 50%); 5.7 ± 0.1 µM in the assay on KCL22 F4 (E255K, 100%); 4.5 ± 0.1 µM in the assay with BV173; 5.2 ± 0.7 µM with HEK-293T; 7.2 ± 1 µM in the assay with KCL22 B8 (T315I, 100%); 5.2 ± 0.1 µM with KBM5 (KBM5, 72 h, resazurin assay). The GI50 with K562 was determined as 5.9 ± 0.6 µM; in [1], 6.5 ± 0.2 µM. In addition, the figures for the IC50 on recombinant Abl1 kinase (setting [2]) and at recombinant Abl1 kinase (setting [3]) were 1.76 µM and 1.76 ± 0.74 µM, respectively.

With `CN1CCN(Cc2ccc(Nc3nc(Nc4cccc(F)c4)c4ncn(CC5CC5)c4n3)cc2)CC1` [Compound 7a, 9-(Cyclopropylmethyl)-N^6-(3-fluorophenyl)-N^2-(4-((4-methylpiperazin-1-yl)methyl)phenyl)-9H-purine-2,6-diamine], the GI50 with KCL22 B10 (Y253H, 50%) is 7.4 ± 0.6 µM; in the assay with KCL22 F4 (E255K, 100%), 11.1 ± 0.5 µM; in the assay on BV173, 3.3 ± 1.6 µM; in the assay on HEK-293T it was 6.3 ± 0.7 µM; with KCL22 B8 (T315I, 100%), 13.8 ± 2 µM; with KBM5 (KBM5, 72 h, resazurin assay), 4.4 ± 0.8 µM. For the same compound, the GI50 in the assay with K562 came out at 1.5 ± 0.1 µM; in [1], 8.1 ± 0.5 µM. Besides, the IC50 on recombinant Abl1 kinase (setting [2]) is 0.18 µM; on recombinant Abl1 kinase (setting [3]), 0.18 ± 0.068 µM.

As for `CN1CCN(c2ccc(Nc3nc(Nc4ccccc4)c4ncn(CC5CC5)c4n3)cc2)CC1` [Compound I, reference compound], the GI50 in the assay on KCL22 B10 (Y253H, 50%) is 5.2 ± 0.2 µM; with KCL22 F4 (E255K, 100%), 5.7 ± 0.3 µM; in the assay on BV173, 2.2 ± 0.2 µM; in the assay on HEK-293T it was 7.5 ± 1.4 µM; in the assay on KCL22 B8 (T315I, 100%) it was 17.3 ± 2 µM; with KBM5 (KBM5, 72 h) it was 2.7 ± 0.1 µM. This compound yielded a GI50 with K562 of 1.5 ± 0.1 µM.

Consider `CN1CCN(Cc2ccc(Nc3nc(Nc4ccc(F)c(F)c4)c4ncn(CC5CC5)c4n3)cc2)CC1` [Compound 7b, 9-(Cyclopropylmethyl)-N^6-(3,4-difluorophenyl)-N^2-(4-((4-methylpiperazin-1-yl)methyl)phenyl)-9H-purine-2,6-diamine], for which the GI50 with KCL22 B10 (Y253H, 50%) is 6.6 ± 0.2 µM; in the assay with KCL22 F4 (E255K, 100%), 10.1 ± 1.2 µM; in the assay on BV173, 1.9 ± 0.1 µM; in the assay on HEK-293T, 6.3 ± 1.2 µM; with KCL22 B8 (T315I, 100%), 11.4 ± 3.2 µM; in the assay with KBM5 (KBM5, 72 h, resazurin assay), 4.2 ± 0.2 µM. In addition, the GI50 came to 1.4 ± 0.2 µM with K562 and 8.5 ± 1.4 µM in assay [1]. Besides, the results for the IC50 at recombinant Abl1 kinase (setting [2]) and at recombinant Abl1 kinase (setting [3]) were 0.22 µM and 0.225 ± 0.042 µM, respectively.

Regarding `CN1CCN(c2ccc(Nc3nc(Nc4ccc(F)c(F)c4)c4ncn(CC5CC5)c4n3)cc2)CC1` [III, reference compound], the 50% growth inhibitory concentration (GI50) was 3.4 ± 0.4 µM in the assay on KCL22 B10 (Y253H, 50%); above 20 µM in the assay with KCL22 F4 (E255K, 100%); 1.4 ± 0.1 µM in the assay on BV173; 5.3 ± 0.3 µM with HEK-293T; above 20 µM with KCL22 B8 (T315I, 100%); 1.1 ± 0.8 µM in the assay with KBM5 (KBM5, 72 h). This compound also gave a GI50 in the assay on K562 of 1.2 ± 0.4 µM.

Take `CN1CCN(c2ccc(Nc3nc(Nc4cccc(F)c4)c4ncn(CC5CC5)c4n3)cc2)CC1` [II, reference compound]: the GI50 is 8.8 ± 0.4 µM in the assay on KCL22 B10 (Y253H, 50%); above 20 µM in the assay with KCL22 F4 (E255K, 100%); 5.3 ± 0.2 µM in the assay with BV173; 5.6 ± 0.6 µM with HEK-293T; above 20 µM in the assay on KCL22 B8 (T315I, 100%); 5.1 ± 0.5 µM with KBM5 (KBM5, 72 h). Further, the GI50 in the assay on K562 amounted to 0.8 ± 0.1 µM.

Regarding `Cc1ccc(NC(=O)c2ccc(CN3CCN(C)CC3)cc2)cc1Nc1nccc(-c2cccnc2)n1` [Imatinib, reference compound], the GI50 in the assay with KCL22 B10 (Y253H, 50%) is above 20 µM; in the assay with KCL22 F4 (E255K, 100%), 9.6 ± 0.5 µM; in the assay with BV173 it was 0.199 ± 0.061 µM; in the assay on HEK-293T it was above 10 µM; with KCL22 B8 (T315I, 100%), above 20 µM; in the assay with K562, 0.231 ± 0.001 µM.

As usually defined, the GI50 is the concentration giving 50% growth inhibition.

For the origin of these results see paper PMC11125181, “New Inhibitors of Bcr-Abl Based on 2,6,9-Trisubstituted Purine Scaffold Elicit Cytotoxicity in Chronic Myeloid Leukemia-Derived Cell Lines Sensitive and Resistant to TKIs” (Pharmaceutics, 2024).
